Results on 18 compounds are retold here after US20260200845A1, “NEUTROPHIL ELASTASE INHIBITOR AND USE THEREOF” (Shanghai Yidi Biotechnology Co., Ltd, priority 2023, published 2026).

One test has as its target T1, rhELA2 (Homo sapiens, UniProt P08246).
T1 sequence (P08246 30-267): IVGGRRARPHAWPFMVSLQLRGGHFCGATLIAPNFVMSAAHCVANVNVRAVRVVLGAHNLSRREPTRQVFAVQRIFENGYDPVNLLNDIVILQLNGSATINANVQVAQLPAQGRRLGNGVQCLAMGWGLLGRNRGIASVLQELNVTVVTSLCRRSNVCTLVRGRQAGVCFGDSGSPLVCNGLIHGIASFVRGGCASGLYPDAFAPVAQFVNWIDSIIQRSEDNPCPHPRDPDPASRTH
In words: Neutrophil elastase (rhELA2) fluorescence inhibition assay. As to conditions: rhELA2 activated with DPPI; 30 min preincubation, 1 hr with substrate, fluorescence 360 nm/450 nm. The class given is biochemical. The protocol: Compound preparation: All compounds were dissolved in DMSO at a concentration of 10 mM, and stored at −20° C.
A 1× assay buffer was prepared. […] 1 μL of the serially diluted compound and 65.67 μL of the assay buffer were added into a plate, to obtain 3× working solutions of the positive compound and the test compounds (the final concentration in DMSO was 1.5%). The plate was sealed with a sealing film and shaken on an oscillator for 15 min.
A 1× activation buffer was prepared. rhELA2 was diluted in the activation buffer containing DPPI and incubated at 37° C. for 2 hrs to activate rhELA2. 5 μl of the 3× diluted working solutions of the compound was added to a 384-well plate. rhELA2 was diluted with the 1× assay buffer, to obtain a 3× working solution of rhELA2. 5 μl of the 3× working solution of rhELA2 was added to each well of the 384-well plate. The plate was sealed and incubated for 30 min at room temperature in the dark.
A 3× substrate solution was prepared in the 1× assay buffer. 5 μl of the 3× working solution of the substrate was added into the 384-well plate. The 384-well plate was centrifuged at 1000 rpm for 1 min, and incubated for 1 hr at room temperature in the dark. The fluorescence value FLU at 360 nm/450 nm was read on a plate reader.
The inhibition rate % was calculated. Inhibition rate=(1−(FLU of the compound−FLU of the positive well)/(FLU of the reference well−FLU of the positive well)). FLU of the reference well is that of a well with only the enzyme and no the inhibitor, and FLU of the positive well is that of a well with the enzyme and 3000 nm Sivelestat-2. Then the IC50 value was calculated by the formula Y=Bottom+(Top−Bottom)/(1+10^((LogIC50−X)*HillSlope)) using Graphpad 8.0 software.

Test [1] relates to mouse model of LPS-induced acute lung injury. The experiment in a line: Animal Test 1: mouse model of LPS-induced acute lung injury. The note with it: for Content of inflammatory factor IL-1β (Mean ± SD) / Content of inflammatory factor TNF-α (Mean ± SD): left lung homogenate supernatant, 24 h after LPS, i.v. 25 mg/kg at 0.5 h, 4 h and 12 h, total 75 mg/kg. The test is classed as in vivo, ICR mice. The procedure: Test animals: ICR mice, SPF grade, male, weight at the time of administration: 25-28 g.
Animal grouping: 4 groups, each group having 10 animals.
Establishment of mouse model of LPS-induced acute lung injury: The mice were anesthetized by intramuscular injection of Zoletil®50 (0.05 mL/mouse). Then the mice were fixed in a supine position, the cervical trachea was isolated, and lipopolysaccharide (LPS) (1 mg/mL, 35 μL/mouse) was sprayed by a high-pressure atomizing nozzle. The neck skin was sutured, and disinfected with iodophor.
The dosage at each administration was 25 mg/kg, and the total daily dosage was 75 mg/kg.
24 h after LPS was sprayed into the trachea of mice, the mice were sacrificed, and the trachea was isolated and intubated. The left lung lobe was ligated. The lung lavage was carried out with 0.5 mL normal saline (containing 1% serum and 2 U/mL heparin), and then the process was repeated two times. The lavage fluids of the 3 times were mixed and stood on ice for later use. The ligated left lung lobe was removed from the animal Nos. 1-8 in the blank control group, the model group, the test group and the positive control group respectively, weighed, added with 0.9% NaCl at a ratio of 1:6, homogenized at 4° C. and centrifuged at 10000 rpm for 10 min. The supernatant was collected and the contents of inflammatory factors IL-1B and TNF-α were determined.

The test system of test [2] is rat model of hydrochloric acid-induced acute lung injury. In words: Animal Test 2: rat model of hydrochloric acid-induced acute lung injury. The test is classed as in vivo, rats. The procedure: Animal grouping: 4 groups, each group having 8 animals.
Establishment of rat model of hydrochloric acid-induced acute lung injury: 0.1 N HCL was sprayed into the trachea of rats at a dosage of 0.1 mL/rat.
Both groups were administered twice by tail vein injection, immediately after the model establishment and again 2.5 hrs after the model establishment.
The rats were sacrificed 5 h after the model establishment. Alveolar lavage was performed. The inflammatory cells, protein exudation, pulmonary hemorrhage and NE enzyme activity in the lavage fluid were measured.

Where [3] appears, read: alveolar lavage fluid 5 h after model establishment, tail vein injection twice, total 120 mg/kg.
Setting [4] is: alveolar lavage fluid 5 h after model establishment, tail vein injection twice, total 30 mg/kg.

`Cn1nccc1-c1ccc(NS(=O)(=O)c2ccc(OC(=O)C(C)(C)C)cc2)c(C(=O)NCC(=O)O)c1` [Compound 1, (5-(1-methyl-1H-pyrazol-5-yl)-2-((4-(pivaloyloxy)phenyl)sulfonamido)benzoyl)glycine]: 20.4 nM corresponded to half-maximal inhibition against rhELA2 (IC50).
For `Cn1cc(-c2ccc(NS(=O)(=O)c3ccc(OC(=O)C(C)(C)C)cc3)c(C(=O)NCC(=O)O)c2)cn1` [Compound 2], the IC50 on rhELA2 came to 30.5 nM.
Turning to `CC(C)(C)C(=O)Oc1ccc(S(=O)(=O)Nc2ccc(-n3ccnc3)cc2C(=O)NCC(=O)O)cc1` [Compound 3], on rhELA2, 23.6 nM corresponded to half-maximal inhibition (IC50).
On rhELA2, `CC(C)(C)C(=O)Oc1ccc(S(=O)(=O)N[C@@H]2CCC(F)(F)C[C@@H]2C(=O)NCC(=O)O)cc1` [Compound 6] showed an IC50 of 32.8 nM. This IC50 and that of the compound before are within 1.5-fold of each other.
Compound `CC(C)(C)C(=O)Oc1ccc(S(=O)(=O)Nc2ccc(-c3cnoc3)cc2C(=O)NCC(=O)O)cc1` [Compound 11] showed an IC50 on rhELA2 of 27 nM.
In turn, `CC(C)(C)C(=O)Oc1ccc(S(=O)(=O)Nc2ccccc2C(=O)NCP(=O)(O)O)cc1` [Compound 12, ((2-((4-(pivaloyloxy)phenyl)sulfonamido)benzamido)methyl)phosphonic acid] showed an IC50 on rhELA2 of 5.69 nM.
Same read-out and setting: the figure for `CC(C)(C)C(=O)Oc1ccc(S(=O)(=O)Nc2ccccc2C(=O)NCCS(=O)(=O)O)cc1` [Compound 13, 2-(2-((4-(pivaloyloxy)phenyl)sulfonamido)benzamido) ethan-1-sulfonic acid] is 4.22 nM; for `COc1ccc(NS(=O)(=O)c2ccc(OC(=O)C(C)(C)C)cc2)c(C(=O)NCC(=O)O)c1` [Compound 17] it is 15.3 nM; for `CC(C)(C)C(=O)Oc1ccc(S(=O)(=O)Nc2ccccc2C(=O)N[C@H](CF)C(=O)O)cc1` [Compound 19] it is 2.25 nM.
As for `COC[C@@H](NC(=O)c1ccccc1NS(=O)(=O)c1ccc(OC(=O)C(C)(C)C)cc1)C(=O)O` [Compound 20], the IC50 against rhELA2 is 2.47 nM. Besides, the “inhibitory effects on inflammatory factors IL-1B and TNF-α, compared with Sivelestat sodium” value in test [1] (both 75 mg/kg total, i.v.) is “significantly better than those of Sivelestat sodium”. Besides, in test [1], the “Content of inflammatory factor IL-1β (Mean ± SD)” value is on record as 784 ± 159 pg/mL and the “Content of inflammatory factor TNF-α (Mean ± SD)” value was 442 ± 118 pg/mL. Also, in test [2] (Compound 20 120 mg/kg vs Sivelestat sodium 30 mg/kg), the “improvement of pulmonary hemorrhage, reduction of protein exudation and white blood cell count in alveolar lavage fluid, compared with Sivelestat sodium” value was “more obviously compared with Sivelestat sodium”. In test [2] (setting [3]), the “Protein content in alveolar lavage fluid” value worked out at 0.30 ± 0.05 mg/mL; the “Pulmonary hemorrhage (IOD, absorbance at 412 nm)” value is reported as 0.20 ± 0.03; the “White blood cell count (WBC, 1 × 10^6 cell/mL)” value is 0.28 ± 0.10 ** 1 × 10^6 cell/mL.
On rhELA2, `C[C@@H](NC(=O)c1cc(F)ccc1NS(=O)(=O)c1ccc(OC(=O)C(C)(C)C)cc1)C(=O)O` [Compound 21] displayed an IC50 of 2.26 nM.
The same measure, in the same setting: the figure for `C[C@@H](NC(=O)c1cc(C#N)ccc1NS(=O)(=O)c1ccc(OC(=O)C(C)(C)C)cc1)C(=O)O` [Compound 22] is 2.2 nM.
`C[C@@H](NC(=O)c1ccccc1NS(=O)(=O)c1ccc(OC(=O)C(C)(C)C)c(F)c1)C(=O)O` [Compound 23]: the IC50 against rhELA2 is 3.69 nM.
Consider `COC[C@@H](NC(=O)c1cc(C#N)ccc1NS(=O)(=O)c1ccc(OC(=O)C(C)(C)C)cc1)C(=O)O` [Compound 24], for which the IC50 on rhELA2 came out at 1.5 nM.
Same read-out and setting: the figure for `[2H]C([2H])([2H])OC[C@@H](NC(=O)c1ccccc1NS(=O)(=O)c1ccc(OC(=O)C(C)(C)C)cc1)C(=O)O` [Compound 25, O-(methyl-d3)-N-(2-((4-(pivaloyloxy)phenyl)sulfonamido)benzoyl)-D-serine] is 2.54 nM; for `COC[C@H](NC(=O)c1ccccc1NS(=O)(=O)c1ccc(OC(=O)C(C)(C)C)cc1)C(=O)O` [Compound 26] it is 8.49 nM; for `CSCC(NC(=O)c1ccccc1NS(=O)(=O)c1ccc(OC(=O)C(C)(C)C)cc1)C(=O)O` (centres unmarked) [Compound 27] it is 130 nM.
As for `CC(C)(C)C(=O)Oc1ccc(S(=O)(=O)Nc2ccccc2C(=O)NCC(=O)O)cc1` [Sivelestat sodium, reference compound], in test [1], the “Content of inflammatory factor IL-1β (Mean ± SD)” value was 1048 ± 384 ^ pg/mL and the “Content of inflammatory factor TNF-α (Mean ± SD)” value worked out at 552 ± 77 pg/mL. In test [2] (setting [4]), the “Protein content in alveolar lavage fluid (mg/mL)” value is on record as 0.35 ± 0.07 **^ mg/mL; the “Pulmonary hemorrhage (IOD, absorbance at 412 nm)” value is 0.25 ± 0.10; the “White blood cell count (WBC, 1 × 10^6 cell/mL)” value is given as 0.42 ± 0.11 1 × 10^6 cell/mL.
